According to US20100273770A1, “1, 2, 4 -OXADIAZOLE COMPOUNDS FOR THE TREATMENT OF AUTOIMMUNE DISEASES” (priority 2007, published 2010):
Structures can show the parent of a compound that is named as a salt.

Assays:
human S1P3 receptor = target: T1, human S1P3 receptor (Homo sapiens, UniProt Q99500); experiment: S1P3 GTPγS assay; assay type: biochemical; conditions: [35S]-GTPγS binding, S1P3 RBL-2H3 membranes, agonist; read-out: pEC50 (S1P3 GTPγS assay) (converted)
T1 construct: expressed in transfected cells; membranes
Description: (§1) For membrane preparations all steps were performed at 4° C. Rat hepatoma cells stably expressing the human S1P1 receptor or Rat Basophilic Leukaemia cells (RBL) stably expressing human S1P3 receptor were grown to 80% confluency before being harvested into 10 ml Phospho-Buffered Saline (PBS) and centrifuged at 1200 rpm for 5 minutes. After removal of the supernatant, the pellet was re-suspended and cells were homogenised within a glass Waring blender for 2 bursts of 15 secs in 200 mls of buffer (50 mM HEPES, 1 mM leupeptin, 25 μg/ml bacitracin, 1 mM EDTA, 1 mM PMSF, 2 μM pepstatin A). The blender was plunged into ice for 5 mins after the first burst and 10-40 mins after the final burst to allow foam to dissipate. The material was then spun at 500 g for 20 mins and the supernatant spun for 36 mins at 48,000 g. The pellet was resuspended in the same buffer as above but without PMSF and pepstatin A. The material was then forced through a 0.6 mm needle, made up to the required volume, (usually ×4 the volume of the original cell pellet), aliquoted and stored frozen at −80° C.
S1P3 membranes from rat basophilic leukaemia cells (RBL-2H3)(1.5 μg/well) were adhered to WGA-coated SPA beads (0.125 mg/well) in assay buffer (HEPES 20 mM, MgCl2 3 mM, NaCl 100 mM and pH adjusted to 7.4 using KOH 5M), GDP 10 μM FAC and saponin 90 μg/ml FAC was also added).
(§2) After 30 minutes pre-coupling on ice the bead and membrane suspension was dispensed into a white Greiner polypropylene LV384-well plate (5 μl/well), containing 0.1 μl of the compound. 5 μl/well [^35S]-GTPγS (0.5 nM final radioligand conc) made up in assay buffer was then added to agonist plates. The final assay cocktail (10.1 μl) was centrifuged at 1000 rpm for 5 minutes then read immediately on a Viewlux reader.
(§3) All test compounds were dissolved in DMSO at a concentration of 10 mM and were prepared in 100% DMSO using a 1 in 4 dilution step to provide 11 point dose response curves. The dilutions were transferred to the assay plates ensuring that the DMSO concentration was constant across the plate for all assays.
(§4) All data was normalized to the mean of 16 high and 16 low control wells on each plate. A four parameter curve fit was then applied.
(§5) S1P3 expressing RBL membranes (1.5 μg/well) were homogenised by passing through a 23G needle. These were then adhered to WGA-coated SPA beads (0.125 mg/well) in assay buffer (HEPES 20 mM, MgCl2 10 mM, NaCl 100 mM and pH adjusted to 7.4 using KOH 5M). GDP 10 μM FAC and saponin 90 μg/ml FAC were also added
(§6) After 30 minutes precoupling on ice, the bead and membrane suspension was dispensed into white Greiner polypropylene LV 384-well plates (5 μl/well), containing 0.1 μl of compound. 5 μl/well [^35S]-GTPγS (0.5 nM for S1P1 or 0.3 nM for S1P3 final radioligand concentration) made in assay buffer was then added to the plates. The final assay cocktail (10.1 μl) was then sealed, spun on a centrifuge, then read immediately on a Viewlux instrument.

human S1P1 receptor = target: T2, human S1P1 receptor (Homo sapiens, UniProt P21453); experiment: S1P1 GTPγS assay; assay type: biochemical; conditions: [35S]-GTPγS binding, human S1P1 rat hepatoma (RH7777) membranes, agonist; read-out: pEC50 (S1P1 GTPγS assay) (converted)
T2 construct: expressed in transfected cells; membranes
Description: as §1
as §1, with “All” for “For membrane preparations all”, “Cells” for “Rat hepatoma cells stably expressing the human S1P1 receptor or Rat Basophilic Leukaemia cells (RBL) stably expressing human S1P3 receptor were grown to 80% confluency before being harvested into 10 ml Phospho-Buffered Saline (PBS) and centrifuged at 1200 rpm for 5 minutes. After removal of the supernatant, the pellet was re-suspended and cells”
Human S1P1 rat hepatoma membranes (1.5 μg/well) were adhered to a wheatgerm agglutinin (WGA)-coated scintillation proximity assay (SPA) beads (0.125 mg/well) in assay buffer (HEPES 20 mM, MgCl2 10 mM, NaCl 100 mM and pH adjusted to 7.4 using KOH 5M, GDP 10 μM FAC (final assay concentration) and saponin 90 μg/ml FAC was also added).
as §2, with “μl) was then centrifuged at” for “μl) was centrifuged at”
as §3, §4
as §5, with “S1P1” for “S1P3”, “RH7777 membranes (1.5 μg/well)” for “RBL”
as §6

circulating lymphocytes = conditions: animals and man; cited from earlier work
[1] = clinical studies, first 24 hours of treatment; cited from earlier work

T2 sequence (P21453 whole entry): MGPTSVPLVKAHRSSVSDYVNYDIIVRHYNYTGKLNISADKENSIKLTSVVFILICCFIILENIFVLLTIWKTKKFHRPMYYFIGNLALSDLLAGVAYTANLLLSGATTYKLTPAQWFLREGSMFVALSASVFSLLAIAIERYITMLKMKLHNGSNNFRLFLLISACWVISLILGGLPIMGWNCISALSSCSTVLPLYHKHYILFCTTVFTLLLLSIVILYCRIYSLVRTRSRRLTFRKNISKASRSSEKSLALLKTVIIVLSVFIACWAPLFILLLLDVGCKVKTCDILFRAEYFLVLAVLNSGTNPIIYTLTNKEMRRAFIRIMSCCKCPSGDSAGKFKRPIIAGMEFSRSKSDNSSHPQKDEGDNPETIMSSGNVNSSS
T1 sequence (Q99500 whole entry): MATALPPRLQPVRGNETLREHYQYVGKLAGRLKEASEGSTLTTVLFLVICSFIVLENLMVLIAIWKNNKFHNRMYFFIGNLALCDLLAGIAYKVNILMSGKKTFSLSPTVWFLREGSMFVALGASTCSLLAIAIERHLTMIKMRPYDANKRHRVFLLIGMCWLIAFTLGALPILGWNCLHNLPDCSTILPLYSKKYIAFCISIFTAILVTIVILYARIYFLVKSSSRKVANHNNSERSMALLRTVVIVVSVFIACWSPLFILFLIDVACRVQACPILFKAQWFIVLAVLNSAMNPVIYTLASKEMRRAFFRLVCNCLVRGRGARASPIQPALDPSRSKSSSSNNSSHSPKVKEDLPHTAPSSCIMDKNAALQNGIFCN

Row | Structure (SMILES) | EC50 (human S1P3 receptor) [µM] | EC50 (human S1P1 receptor) [µM] | effect on circulating lymphocytes (circulating lymphocytes) | bradycardia on treatment [1]
1 | CC(C)Oc1ccc(-c2nc(-c3ccc4c(c3)CCCNC4CCC(=O)O)no2)cc1Cl (centres unmarked) [Example 2, 3-[7-(5-{3-Chloro-4-[(1-methylethyl)oxy]phenyl}-1,2,4-oxadiazol-3-yl)-2,3,4,5-tetrahydro-1H-2-benzazepin-1-yl]propanoic acid hydrochloride] | > 10 |  |  | 
2 | CC(C)Oc1ccc(-c2nc(-c3cccc4c3OCCNC4CC(=O)O)no2)cc1Cl (centres unmarked) [Example 7, [9-(5-{3-Chloro-4-[(1-methylethyl)oxy]phenyl}-1,2,4-oxadiazol-3-yl)-2,3,4,5-tetrahydro-1,4-benzoxazepin-5-yl]acetic acid hydrochloride] | > 10 | < 0.1 |  | 
3 | CC(C)Oc1ccc(-c2nc(-c3ccc4c(c3)CNC(C(=O)O)CO4)no2)cc1Cl (centres unmarked) [Example 5, 7-(5-{3-Chloro-4-[(1-methylethyl)oxy]phenyl}-1,2,4-oxadiazol-3-yl)-2,3,4,5-tetrahydro-1,4-benzoxazepine-3-carboxylic acid hydrochloride] |  | < 0.1 |  | 
4 | CC(C)Oc1ccc(-c2nc(-c3cccc4c3OCCNC4CCC(=O)O)no2)cc1C#N (centres unmarked) [Example 14, 3-[9-(5-{3-cyano-4-[(1-methylethyl)oxy]phenyl}-1,2,4-oxadiazol-3-yl)-2,3,4,5-tetrahydro-1,4-benzoxazepin-5-yl]propanoic acid, formic acid salt] |  | < 0.01 |  | 
5 | CC(C)Oc1ncc(-c2nc(-c3cccc4c3OCCNC4CCCC(=O)O)no2)cc1Cl (centres unmarked) [Example 11, 4-[9-(5-{5-chloro-6-[(1-methylethyl)oxy]-3-pyridinyl}-1,2,4-oxadiazol-3-yl)-2,3,4,5-tetrahydro-1,4-benzoxazepin-5-yl]butanoic acid hydrochloride] |  | < 0.1 |  | 
6 | CC(C)Oc1ccc(-c2nc(-c3ccc4c(c3)CNC(CCC(=O)O)CO4)no2)cc1Cl (centres unmarked) [Example 6, 3-[7-(5-{3-Chloro-4-[(1-methylethyl)oxy]phenyl}-1,2,4-oxadiazol-3-yl)-2,3,4,5-tetrahydro-1,4-benzoxazepin-3-yl]propanoic acid hydrochloride] |  | < 0.01 |  | 
7 | CC(C)Oc1ccc(-c2nc(-c3ccc4c(c3)CCCNC4CCC(N)=O)no2)cc1Cl (centres unmarked) [Example 1, 3-[7-(5-{3-chloro-4-[(1-methylethyl)oxy]phenyl}-1,2,4-oxadiazol-3-yl)-2,3,4,5-tetrahydro-1H-2-benzazepin-1-yl]propanamide] | > 10 |  |  | 
8 | CCCCCCCCc1ccc(CCC(N)(CO)CO)cc1 [FTY720] |  |  | reduce circulating lymphocytes | bradycardia in the first 24 hours of treatment
9 | CC(C)Oc1ccc(-c2nc(-c3cccc4c3OCCNC4CC(=O)O)no2)cc1C#N (centres unmarked) [Example 8, [9-(5-{3-cyano-4-[(1-methylethyl)oxy]phenyl}-1,2,4-oxadiazol-3-yl)-2,3,4,5-tetrahydro-1,4-benzoxazepin-5-yl]acetic acid] | > 10 |  |  | 
10 | CC(C)Oc1ccc(-c2nc(-c3cccc4c3OCCNC4CCCC(=O)O)no2)cc1C#N (centres unmarked) [Example 10, 4-[9-(5-{3-cyano-4-[(1-methylethyl)oxy]phenyl}-1,2,4-oxadiazol-3-yl)-2,3,4,5-tetrahydro-1,4-benzoxazepin-5-yl]butanoic acid hydrochloride salt] | > 10 | < 0.1 |  | 
11 | CC(C)Oc1ccc(-c2nc(-c3cccc4c3OCCNC4CCCC(=O)O)no2)cc1Cl (centres unmarked) [Example 12, 4-[9-(5-{3-chloro-4-[(1-methylethyl)oxy]phenyl}-1,2,4-oxadiazol-3-yl)-2,3,4,5-tetrahydro-1,4-benzoxazepin-5-yl]butanoic acid hydrochloride] | > 10 | < 0.01 |  | 
12 | CC(C)Oc1ncc(-c2nc(-c3cccc4c3OCCNC4CC(=O)O)no2)cc1Cl (centres unmarked) [Example 9, [9-(5-{5-Chloro-6-[(1-methylethyl)oxy]-3-pyridinyl}-1,2,4-oxadiazol-3-yl)-2,3,4,5-tetrahydro-1,4-benzoxazepin-5-yl]acetic acid] | > 10 | < 0.1 |  | 
13 | CC(C)Oc1ccc(-c2nc(-c3cccc4c3OCCNC4CCC(=O)O)no2)cc1Cl (centres unmarked) [Example 13, 3-[9-(5-{3-Chloro-4-[(1-methylethyl)oxy]phenyl}-1,2,4-oxadiazol-3-yl)-2,3,4,5-tetrahydro-1,4-benzoxazepin-5-yl]propanoic acid, formic acid salt] | > 10 | < 0.01 |  | 
14 | CC(C)Oc1ccc(-c2nc(-c3ccc4c(c3)CCCNC4CCCO)no2)cc1Cl (centres unmarked) [Example 3, 3-[7-(5-{3-Chloro-4-[(1-methylethyl)oxy]phenyl}-1,2,4-oxadiazol-3-yl)-2,3,4,5-tetrahydro-1H-2-benzazepin-1-yl]-1-propanol hydrochloride] | > 10 |  |  | 
